For assay [1], the system named is Staphylococcus aureus, MRSA (ATCC 33591). Kind of assay: Antibacterial MIC assay (microbroth dilution, CLSI). It counts as cell-based. To be noted: 35° C., 16-20 hours. An excerpt: (§1) All MIC testing of bacteria followed the Clinical and Laboratory Standards Institute (CLSI) guidelines for antimicrobial testing of aerobic bacteria (Methods for Dilution Antimicrobial Susceptibility Tests for Bacteria that Grow Aerobically; Approved Standard—Tenth Edition, M07-A10; Performance Standards for Antimicrobial Susceptibility Testing; Twenty-fifth Informational Supplement, M100-S25).
(§2) Briefly, the microbroth dilution MIC method was used to quantitatively measure the in vitro antibacterial activity of a compound against a given bacterial isolate. The following bacterial strains were evaluated: Staphylococcus aureus, MRSA (ATCC 33591) and Streptococcus pneumoniae (ATCC 49619). Bacteria were grown in cation-adjusted Mueller-Hinton broth, with additions as required per species growth requirements (e.g. 3% lysed horse blood for fastidious organisms such as S. pneumoniae). A direct colony suspension in saline was prepared from colonies on an overnight agar plate to achieve a turbidity equivalent to 0.5 McFarland standard, which was subsequently diluted into the assay plate to achieve 5×10^5 CFU/mL. Assays plates were prepared by 2-fold dilution of compound across the plate and included a positive growth control.

In assay [2] the test system is Streptococcus pneumoniae (ATCC 49619). The assay is described as above. Type of assay: cell-based. The following applies: 3% lysed horse blood, 35° C., 16-20 hours.
Text: as §1, §2

As for `C[C@@H]1CC[C@@]23CCC(=O)[C@H]2[C@]1(C)[C@H](OC(=O)COc1ccc2c(c1F)B(O)OC2)C[C@@](C)(CCC(=O)N1CC[C@H](O)C1)[C@@H](O)[C@@H]3C` [Compound 8, (3aR,4R,5R,7R,8S,9R,9aS,12R)-8-hydroxy-7-(3-((S)-3-hydroxypyrrolidin-1-yl)-3-oxopropyl)-4,7,9,12-tetramethyl-3-oxodecahydro-4,9a-propanocyclopenta[8]annulen-5-yl2-((7-fluoro-1-hydroxy-1,3-dihydrobenzo[c][1,2]oxaborol-6-yl)oxy)acetate], the “MIC Staphylococcus aureus, MRSA (ATCC 33591)” value (“MIC Staphylococcus aureus” below) in assay [1] is on record as “C (4-32 is C)”. Also, the “MIC Streptococcus pneumoniae (ATCC 49619)” value (shortened to “MIC Streptococcus pneumoniae”) in assay [2] is reported as “B (0.5-2 is B)”.
Taken in the same sequence, the figures for `C#CC[C@]1(C)C[C@@H](OC(=O)COc2ccc3c(c2F)B(O)OC3)[C@]2(C)[C@H](C)CC[C@]3(CCC(=O)[C@H]32)[C@@H](C)[C@@H]1O` [Compound 22, (3aR,4R,5R,7R,8S,9R,9aS,12R)-8-hydroxy-4,7,9,12-tetramethyl-3-oxo-7-(prop-2-yn-1-yl)decahydro-4,9a-propanocyclopenta[8]annulen-5-yl2-((7-fluoro-1-hydroxy-1,3-dihydrobenzo[c][1,2]oxaborol-6-yl)oxy)acetate] were “A (MIC of ≤0.25 is A)” and “B (0.5-2 is B)”.
In the case of `C[C@@H]1CC[C@@]23CCC(=O)[C@H]2[C@]1(C)[C@H](OC(=O)COc1ccc2c(c1F)B(O)OC2)C[C@@](C)(CN)[C@@H](O)[C@@H]3C` [Compound 47, (3aR,4R,5R,7S,8S,9R,9aS,12R)-7-(aminomethyl)-8-hydroxy-4,7,9,12-tetramethyl-3-oxodecahydro-4,9a-propanocyclopenta[8]annulen-5-yl2-((7-fluoro-1-hydroxy-1,3-dihydrobenzo[c][1,2]oxaborol-6-yl)oxy)acetate], the “MIC Staphylococcus aureus” value in assay [1] was “B (0.5-2 is B)”. Further, the “MIC Streptococcus pneumoniae” value in assay [2] is listed as “C (4-32 is C)”.
Regarding `CCCCNC[C@]1(C)C[C@@H](OC(=O)COc2ccc3c(c2F)B(O)OC3)[C@]2(C)[C@H](C)CC[C@]3(CCC(=O)[C@H]32)[C@@H](C)[C@@H]1O` [Compound 36, (3aR,4R,5R,7S,8S,9R,9aS,12R)-7-((butylamino)methyl)-8-hydroxy-4,7,9,12-tetramethyl-3-oxodecahydro-4,9a-propanocyclopenta[8]annulen-5-yl2-((7-fluoro-1-hydroxy-1,3-dihydrobenzo[c][1,2]oxaborol-6-yl)oxy)acetate], the “MIC Staphylococcus aureus” value in assay [1] was “B (0.5-2 is B)”. In assay [2], the “MIC Streptococcus pneumoniae” value is on record as “C (4-32 is C)”.
On the same counts, the results for `C[C@@H]1CC[C@@]23CCC(=O)[C@H]2[C@]1(C)[C@H](OC(=O)COc1ccc2c(c1F)B(O)OC2)C[C@@]1(C)CC(O)O[C@H]1[C@@H]3C` (stereo partly drawn) [Compound 9, (3aS,5R,6R,6aR,9aS,10R,10aS,13R)-2-hydroxy-3a,6,10,13-tetramethyl-7-oxododecahydro-6,9a-propanocyclopenta[6,7]cycloocta[1,2-b]furan-5-yl2-((7-fluoro-1-hydroxy-1,3-dihydrobenzo[c][1,2]oxaborol-6-yl)oxy)acetate] are “C (4-32 is C)” and “C (4-32 is C)”.
On the same counts, the results for `CON=C[C@]1(C)C[C@@H](OC(=O)COc2ccc3c(c2F)B(O)OC3)[C@]2(C)[C@H](C)CC[C@]3(CCC(=O)[C@H]32)[C@@H](C)[C@@H]1O` [Compound 44, (3aR,4R,5R,7S,8S,9R,9aS,12R)-8-hydroxy-7-((methoxyimino)methyl)-4,7,9,12-tetramethyl-3-oxodecahydro-4,9a-propanocyclopenta[8]annulen-5-yl2-((7-fluoro-1-hydroxy-1,3-dihydrobenzo[c][1,2]oxaborol-6-yl)oxy)acetate] are “A (MIC of ≤0.25 is A)” and “C (4-32 is C)”.
On the same counts, the results for `C[C@@H]1CC[C@@]23CCC(=O)[C@H]2[C@]1(C)[C@H](OC(=O)COc1ccc2c(c1F)B(O)OC2)C[C@@](C)(CN1CCC1)[C@@H](O)[C@@H]3C` [Compound 38, (3aR,4R,5R,7S,8S,9R,9aS,12R)-7-(azetidin-1-ylmethyl)-8-hydroxy-4,7,9,12-tetramethyl-3-oxodecahydro-4,9a-propanocyclopenta[8]annulen-5-yl2-((7-fluoro-1-hydroxy-1,3-dihydrobenzo[c][1,2]oxaborol-6-yl)oxy)acetate] are “B (0.5-2 is B)” and “C (4-32 is C)”.
In the case of `CC(C)ON=C[C@]1(C)C[C@@H](OC(=O)COc2ccc3c(c2F)B(O)OC3)[C@]2(C)[C@H](C)CC[C@]3(CCC(=O)[C@H]32)[C@@H](C)[C@@H]1O` [Compound 46, (3aR,4R,5R,7S,8S,9R,9aS,12R)-8-hydroxy-7-((isopropoxyimino)methyl)-4,7,9,12-tetramethyl-3-oxodecahydro-4,9a-propanocyclopenta[8]annulen-5-yl2-((7-fluoro-1-hydroxy-1,3-dihydrobenzo[c][1,2]oxaborol-6-yl)oxy)acetate], the “MIC Staphylococcus aureus” value in assay [1] was “B (0.5-2 is B)”. Further, the “MIC Streptococcus pneumoniae” value in assay [2] was “C (4-32 is C)”.
On the same counts, the results for `C=CC[C@]1(C)C[C@@H](OC(=O)COc2ccc3c(c2F)B(O)OC3)[C@]2(C)[C@H](C)CC[C@]3(CCC(=O)[C@H]32)[C@@H](C)[C@@H]1O` [Compound 21, (3aR,4R,5R,7R,8S,9R,9aS,12R)-7-allyl-8-hydroxy-4,7,9,12-tetramethyl-3-oxodecahydro-4,9a-propanocyclopenta[8]annulen-5-yl2-((7-fluoro-1-hydroxy-1,3-dihydrobenzo[c][1,2]oxaborol-6-yl)oxy)acetate] are “A (MIC of ≤0.25 is A)” and “B (0.5-2 is B)”.
As to `COCC[C@]1(C)C[C@@H](OC(=O)COc2ccc3c(c2F)B(O)OC3)[C@]2(C)[C@H](C)CC[C@]3(CCC(=O)[C@H]32)[C@@H](C)[C@@H]1O` [Compound 26, (3aR,4R,5R,7R,8S,9R,9aS,12R)-8-hydroxy-7-(2-methoxyethyl)-4,7,9,12-tetramethyl-3-oxodecahydro-4,9a-propanocyclopenta[8]annulen-5-yl2-((7-fluoro-1-hydroxy-1,3-dihydrobenzo[c][1,2]oxaborol-6-yl)oxy)acetate], in assay [1], the “MIC Staphylococcus aureus” value is recorded as “A (MIC of ≤0.25 is A)”. Also, the “MIC Streptococcus pneumoniae” value in assay [2] is listed as “C (4-32 is C)”.
`Cc1noc(/C=C/[C@]2(C)C[C@@H](OC(=O)COc3ccc4c(c3F)B(O)OC4)[C@]3(C)[C@H](C)CC[C@]4(CCC(=O)[C@H]43)[C@@H](C)[C@@H]2O)n1` [Compound 52, (3aR,4R,5R,7S,8S,9R,9aS,12R)-8-hydroxy-4,7,9,12-tetramethyl-7-((E)-2-(3-methyl-1,2,4-oxadiazol-5-yl)vinyl)-3-oxodecahydro-4,9a-propanocyclopenta[8]annulen-5-yl2-((7-fluoro-1-hydroxy-1,3-dihydrobenzo[c][1,2]oxaborol-6-yl)oxy)acetate]: the “MIC Staphylococcus aureus” value in assay [1] is “A (MIC of ≤0.25 is A)”. Also, in assay [2], the “MIC Streptococcus pneumoniae” value is listed as “A (MIC of ≤0.25 is A)”.
On to `C[C@@H]1CC[C@@]23CCC(=O)[C@H]2[C@]1(C)[C@H](OC(=O)COc1ccc2c(c1F)B(O)OC2)C[C@@](C)(C=O)[C@@H](O)[C@@H]3C` [Compound 31, (3aR,4R,5R,7R,8S,9R,9aS,12R)-7-formyl-8-hydroxy-4,7,9,12-tetramethyl-3-oxodecahydro-4,9a-propanocyclopenta[8]annulen-5-yl2-((7-fluoro-1-hydroxy-1,3-dihydrobenzo[c][1,2]oxaborol-6-yl)oxy)acetate], for which, in assay [1], the “MIC Staphylococcus aureus” value is given as “A (MIC of ≤0.25 is A)”. Also, the “MIC Streptococcus pneumoniae” value in assay [2] was “B (0.5-2 is B)”.
As to `CC(=O)NC[C@]1(C)C[C@@H](OC(=O)COc2ccc3c(c2F)B(O)OC3)[C@]2(C)[C@H](C)CC[C@]3(CCC(=O)[C@H]32)[C@@H](C)[C@@H]1O` [Compound 48, (3aR,4R,5R,7S,8S,9R,9aS,12R)-7-(acetamidomethyl)-8-hydroxy-4,7,9,12-tetramethyl-3-oxodecahydro-4,9a-propanocyclopenta[8]annulen-5-yl2-((7-fluoro-1-hydroxy-1,3-dihydrobenzo[c][1,2]oxaborol-6-yl)oxy)acetate], the “MIC Staphylococcus aureus” value in assay [1] is reported as “B (0.5-2 is B)”. Moreover, the “MIC Streptococcus pneumoniae” value in assay [2] is given as “C (4-32 is C)”.
Take `C[C@@H]1CC[C@@]23CCC(=O)[C@H]2[C@]1(C)[C@H](OC(=O)COc1ccc2c(c1F)B(O)OC2)C[C@@](C)(CCN1CCCCC1)[C@@H](O)[C@@H]3C` [Compound 40, (3aR,4R,5R,7R,8S,9R,9aS,12R)-8-hydroxy-4,7,9,12-tetramethyl-3-oxo-7-(2-(piperidin-1-yl)ethyl)decahydro-4,9a-propanocyclopenta[8]annulen-5-yl2-((7-fluoro-1-hydroxy-1,3-dihydrobenzo[c][1,2]oxaborol-6-yl)oxy)acetate]: in assay [1], the “MIC Staphylococcus aureus” value was “C (4-32 is C)”. For the same molecule, the “MIC Streptococcus pneumoniae” value in assay [2] was “D (≥64 is D)”.

These data come from US20220273683A1, “BORON-CONTAINING SMALL MOLECULES” (Bill & Melinda Gates Foundation, priority 2016, published 2022).
